Values of other authors as cited in patent US20050032747A1, “COX-2 and FAAH inhibitors” (priority 2003, published 2005).

System: prostaglandin synthesis
Conditions: reported by Shen et al. 1977

In the case of `Cc1c(CC(=O)O)c2cc(O)ccc2n1C(=O)c1ccc(Cl)cc1` [desmethylindomethacin, O-desmethylindomethacin], the “ability to inhibit prostaglandin synthesis” value is given as “some ability to inhibit prostaglandin synthesis”.
